Results published in patent US20100285959A1, “HERBICIDAL MIXTURES” (priority 2006, published 2010).

Assays:
kochia (KCHSC) = assay: Test 22 growth chamber, postemergence; assay type: in vivo, Kochia scoparia; details: 25 DAA
Procedure: (§1) A test was conducted to evaluate the effects on winter barley (HORVW, Hordeum vulgare L.), winter wheat (TRZAW, Triticum aestivum L.), and several weed species of mixtures of Compound 2 with the commercial herbicides (2,4-dichlorophenoxy)acetic acid (2,4-D) and (4-chloro-2-methylphenoxy)acetic acid (MCPA), auxin mimics. […] Plants were treated postemergence at the 2-4 leaf growth stage, except KCHSC, SASKR and STEME which were in the 4-8 leaf growth stage. Each treatment was replicated one time. […] Plants were watered as needed. […] Results are from single replicates.

wild mustard (SINAR) [1] = assay: Test 23 growth chamber, postemergence; assay type: in vivo, Sinapis arvensis; details: 21 DAA
Procedure: as §1, with “stage,” for “stage, except KCHSC, SASKR”, “each” for “STEME which were in the 4-8 leaf growth stage. Each”, “three times.” for “one time.”, “means of the three” for “from single”

wild mustard (SINAR) [2] = assay: Test 21 growth chamber, postemergence; assay type: in vivo, Sinapis arvensis; details: 19 DAA
Procedure: (§2) A test was conducted to evaluate the effects on winter barley (HORVW, Hordeum vulgare L.), winter wheat (TRZAW, Triticum aestivum L.), and several weed species, of mixtures of Compound 2 with the commercial herbicide (2,4-dichlorophenoxy)acetic acid (2,4-D), an auxin mimic. […] Plants were treated postemergence at the 2-4 leaf growth stage, and each treatment was replicated one time. […] Plants were watered as needed. […] Results are from single replicates.

winter barley (HORVW) = assay: Test 19 growth chamber, postemergence; assay type: in vivo, Hordeum vulgare
Procedure: as §2, with “L.) and” for “L.),”, “L.)” for “L.), and several weed species,”, “3-leaf” for “2-4 leaf”, “four times.” for “one time.”, “the means of the four” for “from single”

common purslane (POROL) = assay: Test 12 field trial, preemergence; assay type: in vivo, Portulaca oleracea; details: Cpd 2 or Cpd 1 62 g a.i./ha, Diuron 2000 g a.i./ha
From the text: (§3) In early-mid spring season, corn seeds (hybrid ‘Pioneer 3041’) were planted 5 cm deep and sugarcane nodes (variety RB-72.454) were planted 10 cm deep in separate plots in a clay soil having 2.6% organic matter and a pH of 5.6. Plots were 24 m long by 1.5 m wide with rows spaced 80 cm (corn) or 140 cm (sugarcane) apart. Corn seeds were spaced 15 cm apart and sugarcane nodes were spaced 10 cm apart within the rows. At the same time, weed seeds were broadcast over the surface of separate plots without a crop, one weed species per plot. The weed plots were rotary tilled to incorporate the weed seeds to a variety of depths. The field was managed using conventional tillage practices.

arrowleaf sida (SIDRH) = assay: Test 12 field trial, preemergence; assay type: in vivo, Sida rhombifolia; design: scale not given here; details: Cpd 2 or Cpd 1 62 g a.i./ha, Diuron 2000 g a.i./ha
From the text: as §3

yellow nutsedge (CYPES) = assay: Test 14 field trial, preemergence, growth as percent of control; assay type: in vivo, Cyperus esculentus
From the text: Corn seeds (hybrid ‘Pioneer 31G96 RR’) were planted in mid spring season, 3.8 cm deep in a clay loam soil having 2% organic matter and a pH of 6.6. Plots were 6.1 m long by 3.0 m wide with rows spaced 76 cm apart. Seeds were spaced 15 cm apart within the rows. The field was managed using conventional tillage practices. […] Yellow nutsedge was only evaluated 19 and 28 days after application, and ivyleaf morningglory could only be evaluated 28 days after application. […] Results are the means of the three replicates. This growth inhibition data was converted to results in the form of “plant growth as a percent of control plant growth” using the calculation “100 minus growth inhibition”. […] For “growth as a percent of control” data, Colby's Equation calculates the expected additive effect of herbicidal mixtures having two active ingredients as follows:
Ga+b=GaGb/100 • wherein Ga+b is the growth as a percent of control of plants treated with the mixture expected from additive contribution of the individual components, • Ga is the observed growth as a percent of control of plants treated with the first active ingredient at the same use rate as in the mixture, and • Gb is the observed growth as a percent of control of plants treated with the second active ingredient at the same use rate as in the mixture. For mixtures having three active ingredients, Colby's Equation to calculate the expected additive effect of herbicidal mixtures is as follows:
Ga+b+c=GaGbGc/10,000 • wherein Ga and Gb are as defined above and • Ga+b+c is the growth as a percent of control of plants treated with the mixture expected from additive contribution of the individual components, and • Gc is the observed growth as a percent of control of plants treated with the third active ingredient at the same use rate as in the mixture. When these two forms of Colby's Equation are used, if the observed effects on weeds are less than the expected values, the mixture is synergistic.

bushy wallflower (ERYRE) = assay: Test 9 field trial, emerged weeds before corn planting; assay type: in vivo, Erysimum repandum; details: g a.i./ha: Cpd 2 100, Glyphosate 1540, Paraquat 1150
Procedure: Corn seeds (hybrid ‘Pioneer 34M91 RR’) were planted in mid spring season, about 3.8 cm deep in a silty clay loam soil having a pH of 6.7. Plots were 9.1 m long by 3.0 m. The field was managed using no-till practices. […] Compound 2 and paraquat treatments, alone and in combination, also included a surfactant. Glyphosate, alone and with Compound 2, included ammonium sulfate in the treatment mixture. […] The effects on the weeds in the treated plots and untreated control plots were recorded 7, 14, 23, 30 and 57 days after application. Most of the weed species could not be evaluated at every timing. Corn response was only evaluated 57 days after application. […] Results are the means of the three replicates.

[3] = 2,4-D or MCPA alone 250 g a.i./ha

Row | SMILES | POROL Obs (common purslane (POROL); 15 DAA) | POROL Obs (common purslane (POROL); 29 DAA) | POROL Obs (common purslane (POROL); 48 DAA) | POROL Obs (common purslane (POROL); 61 DAA) | SIDRH Obs (arrowleaf sida (SIDRH); 15 DAA) | SIDRH Obs (arrowleaf sida (SIDRH); 29 DAA) | SIDRH Obs (arrowleaf sida (SIDRH); 48 DAA) | SIDRH Obs (arrowleaf sida (SIDRH); 61 DAA) | ERYRE Obs (bushy wallflower (ERYRE); 7 DAA) [%] | ERYRE Obs (bushy wallflower (ERYRE); 14 DAA) [%] | ERYRE Obs (bushy wallflower (ERYRE); 23 DAA) [%] | ERYRE Obs (bushy wallflower (ERYRE); 30 DAA) [%] | ERYRE Obs (bushy wallflower (ERYRE); 57 DAA) [%] | also measured
1 | O=C(O)COc1ccc(Cl)cc1Cl [2,4-D, (2,4-dichlorophenoxy)acetic acid] | – | – | – | – | – | – | – | – | – | – | – | – | – | Postemergence KCHSC Obs (kochia (KCHSC); [3]): 60; Postemergence SINAR Obs (wild mustard (SINAR) [1]; [3]): 65; Postemergence SINAR Obs (wild mustard (SINAR) [2]; 2,4-D alone 125 g a.i./ha): 85; Postemergence SINAR Obs (wild mustard (SINAR) [2]; 2,4-D alone 250 g a.i./ha): 65; HORVW Obs (winter barley (HORVW); Postemergence, 17 DAA, g a.i./ha: Cpd 2 16, 2,4-D 250): 15; HORVW Obs (winter barley (HORVW); Postemergence, 17 DAA, g a.i./ha: Cpd 2 16, 2,4-D 500): 5; HORVW Obs (winter barley (HORVW); Postemergence, 17 DAA, g a.i./ha: Cpd 2 16, 2,4-D 1000): 10
2 | Nc1nc(C2CC2)nc(C(=O)O)c1Cl [Compound 1, 6-amino-5-chloro-2-cyclopropyl-4-pyrimidinecarboxylic acid] | 90 | 97 | 100 | 100 | 60 | 95 | 100 | 95 | – | – | – | – | – | –
3 | COC(=O)c1nc(C2CC2)nc(N)c1Cl [Compound 2, methyl 6-amino-5-chloro-2-cyclopropyl-4-pyrimidinecarboxylate] | 60 | 75 | 90 | 90 | 40 | 90 | 70 | 60 | 20 | 3 | 3 | 0 | 0 | Postemergence KCHSC Obs (kochia (KCHSC); Cpd 2 alone 4 g a.i./ha): 45; Postemergence KCHSC Obs (kochia (KCHSC); Cpd 2 alone 8 g a.i./ha): 50; Postemergence KCHSC Obs (kochia (KCHSC); Cpd 2 alone 16 g a.i./ha): 60; Obs growth % of control (yellow nutsedge (CYPES); 19 DAA, 75 g a.i./ha): 85%; Obs growth % of control (yellow nutsedge (CYPES); 19 DAA, 100 g a.i./ha): 78%; Obs growth % of control (yellow nutsedge (CYPES); 28 DAA, 75 g a.i./ha): 85%; Obs growth % of control (yellow nutsedge (CYPES); 28 DAA, 100 g a.i./ha): 90%; Postemergence SINAR Obs (wild mustard (SINAR) [1]; Cpd 2 alone 4 g a.i./ha): 43; Postemergence SINAR Obs (wild mustard (SINAR) [1]; Cpd 2 alone 8 g a.i./ha): 53; Postemergence SINAR Obs (wild mustard (SINAR) [1]; Cpd 2 alone 16 g a.i./ha): 55; Postemergence SINAR Obs (wild mustard (SINAR) [2]; Cpd 2 alone 16 g a.i./ha): 65; HORVW Obs (winter barley (HORVW); in vivo): 45
4 | O=C(O)CNCP(=O)(O)O [Glyphosate] | – | – | – | – | – | – | – | – | 63 | 74 | 89 | 100 | 100 | –
5 | CCc1cccc(C)c1N(C(=O)CCl)[C@@H](C)COC [S-Metolachlor, S-metolachlor, reference compound] | – | – | – | – | – | – | – | – | – | – | – | – | – | Obs growth % of control (yellow nutsedge (CYPES); 28 DAA, 1870 g a.i./ha): 8%
